In PubChem BioAssay AID248 (DTP/NCI, 2004):
Several values for one entry are separate records, joined by “and”; a condition that tells them apart may be missing. Equal values may be shown once. Inconclusive results and toxic doses are left out.

System: L1210 leukemia ip in BDF1 mice, survival T/C
Test: NCI In Vivo Anticancer Drug Screen. Data for tumor model L1210 Leukemia (intraperitoneal) in B6D2F1 (BDF1) mice
Settings: endpoint: mean survival time, higher = longer survival
How it was run: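 Ratio derived from survival: compound-dosed mice over vehicle-dosed mice, all bearing a transplantable tumor.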

[1] = dose: 100.0 mg/kg/injection, schedule: Q01DX009 (ip), vehicle: saline with Tween-80
[2] = dose: 100.0 mg/kg/injection, schedule: Q04DX003 (ip), vehicle: saline with Tween-80
[3] = dose: 200.0 mg/kg/injection, schedule: Q01DX009 (ip), vehicle: saline with Tween-80
[4] = dose: 200.0 mg/kg/injection, schedule: Q04DX003 (ip), vehicle: saline with Tween-80
[5] = dose: 400.0 mg/kg/injection, schedule: Q01DX009 (ip), vehicle: saline with Tween-80
[6] = dose: 400.0 mg/kg/injection, schedule: Q04DX003 (ip), vehicle: saline with Tween-80
[7] = dose: 50.0 mg/kg/injection, schedule: Q04DX003 (ip), vehicle: Klucel (hydroxypropylcellulose) (HPC)
[8] = dose: 100.0 mg/kg/injection, schedule: Q04DX003 (ip), vehicle: Klucel (hydroxypropylcellulose) (HPC)
[9] = dose: 200.0 mg/kg/injection, schedule: Q04DX003 (ip), vehicle: Klucel (hydroxypropylcellulose) (HPC)
[10] = dose: 100.0 mg/kg/injection, schedule: Q01DX001 (ip), vehicle: carboxymethylcellulose (CMC)
[11] = dose: 200.0 mg/kg/injection, schedule: Q01DX001 (ip), vehicle: carboxymethylcellulose (CMC)
[12] = dose: 400.0 mg/kg/injection, schedule: Q01DX001 (ip), vehicle: carboxymethylcellulose (CMC)
[13] = dose: 400.0 mg/kg/injection, schedule: Q04DX003 (ip), vehicle: Klucel (hydroxypropylcellulose) (HPC)
[14] = dose: 100.0 mg/kg/injection, schedule: Q01DX001 (ip), vehicle: saline with Tween-80
[15] = dose: 100.0 mg/kg/injection, schedule: Q04DX003 (ip), vehicle: saline
[16] = dose: 200.0 mg/kg/injection, schedule: Q04DX003 (ip), vehicle: saline
[17] = dose: 400.0 mg/kg/injection, schedule: Q04DX003 (ip), vehicle: saline
[18] = dose: 25.0 mg/kg/injection, schedule: Q04DX003 (ip), vehicle: Klucel (hydroxypropylcellulose) (HPC)
[19] = dose: 50.0 mg/kg/injection, schedule: Q01DX009 (ip), vehicle: Klucel (hydroxypropylcellulose) (HPC)
[20] = dose: 100.0 mg/kg/injection, schedule: Q01DX009 (ip), vehicle: Klucel (hydroxypropylcellulose) (HPC)
[21] = dose: 200.0 mg/kg/injection, schedule: Q01DX009 (ip), vehicle: Klucel (hydroxypropylcellulose) (HPC)
[22] = dose: 100.0 mg/kg/injection, schedule: Q01DX001 (ip), vehicle: saline
[23] = dose: 200.0 mg/kg/injection, schedule: Q01DX001 (ip), vehicle: saline
[24] = dose: 400.0 mg/kg/injection, schedule: Q01DX001 (ip), vehicle: saline
[25] = dose: 100.0 mg/kg/injection, schedule: Q01DX009 (ip), vehicle: saline
[26] = dose: 200.0 mg/kg/injection, schedule: Q01DX009 (ip), vehicle: saline

SMILES: O=C1C=CC(=O)C2=C1C1c3ccccc3C2c2ccccc21
- T/C (dose: 50.0 mg/kg/injection, schedule: Q04DX002 (ip), vehicle: saline with Tween-80): 95 % of control
- T/C (dose: 100.0 mg/kg/injection, schedule: Q04DX002 (ip), vehicle: saline with Tween-80): 95 % of control and 98 % of control
- T/C (dose: 200.0 mg/kg/injection, schedule: Q04DX002 (ip), vehicle: saline with Tween-80): 92 % of control
- T/C (dose: 400.0 mg/kg/injection, schedule: Q04DX002 (ip), vehicle: saline with Tween-80): 114 % of control

SMILES: O=C(NC(Cc1cnc[nH]1)C(=O)O)OCc1ccccc1 (centres undefined)
- T/C [1]: 100 % of control
- T/C [2]: 100 % of control
- T/C [3]: 100 % of control
- T/C [4]: 98 % of control
- T/C [5]: 96 % of control
- T/C [6]: 101 % of control

SMILES: CCOC(=O)C1C(=O)NC(C(=O)OCC)(C(=O)OCC)C1C(C)C (centres undefined)
- T/C [7]: 96 % of control
- T/C [8]: 100 % of control
- T/C [9]: 96 % of control

SMILES: O=C(O)C1C(=O)Oc2c(cccc2[N+](=O)[O-])C1O (centres undefined)
- T/C [10]: 94 % of control
- T/C [11]: 92 % of control
- T/C [12]: 92 % of control

SMILES: CCOC(=O)C1CN(S(=O)(=O)c2ccc(C)cc2)c2ccccc2C(=O)C1/C(=C/C(=O)OC)C(=O)OC (centres undefined)
- T/C [8]: 96 % of control
- T/C [9]: 94 % of control
- T/C [13]: 86 % of control

SMILES: O=NN(CCCl)C(=O)Nc1ccc(CCO)cc1
- T/C (dose: 0.25 mg/kg/injection, schedule: Q01DX009 (ip), vehicle: saline): 112 % of control
- T/C (dose: 0.38 mg/kg/injection, schedule: Q01DX009 (ip), vehicle: saline): 114 % of control
- T/C (dose: 0.59 mg/kg/injection, schedule: Q01DX009 (ip), vehicle: saline): 164 % of control
- T/C (dose: 0.89 mg/kg/injection, schedule: Q01DX009 (ip), vehicle: saline): 205 % of control
- T/C (dose: 7.0 mg/kg/injection, schedule: Q01DX009 (ip), vehicle: saline): 202 % of control
- T/C (dose: 10.0 mg/kg/injection, schedule: Q01DX009 (ip), vehicle: saline): 109 % of control
- T/C (dose: 78.0 mg/kg/injection, schedule: Q01DX001 (ip), vehicle: other): 185 % of control
- T/C (dose: 119.0 mg/kg/injection, schedule: Q01DX001 (ip), vehicle: other): 201 % of control
- T/C (dose: 178.0 mg/kg/injection, schedule: Q01DX001 (ip), vehicle: carboxymethylcellulose (CMC)): 242 % of control
- T/C (dose: 178.0 mg/kg/injection, schedule: Q01DX001 (ip), vehicle: other): 160 % of control and 235 % of control
- T/C (dose: 266.0 mg/kg/injection, schedule: Q01DX001 (ip), vehicle: carboxymethylcellulose (CMC)): 226 % of control
- T/C (dose: 266.0 mg/kg/injection, schedule: Q01DX001 (ip), vehicle: other): 193 % of control
- T/C [12]: 276 % of control
- T/C (dose: 400.0 mg/kg/injection, schedule: Q01DX001 (ip), vehicle: other): 182 % of control
- T/C (dose: 600.0 mg/kg/injection, schedule: Q01DX001 (ip), vehicle: carboxymethylcellulose (CMC)): 244 % of control

SMILES: C/C=C/CCCCCCCC
- T/C [14]: 93 % of control
- T/C (dose: 200.0 mg/kg/injection, schedule: Q01DX001 (ip), vehicle: saline with Tween-80): 95 % of control
- T/C (dose: 400.0 mg/kg/injection, schedule: Q01DX001 (ip), vehicle: saline with Tween-80): 96 % of control

SMILES: O=[N+]([O-])c1ccc(C=Nc2ccccc2)s1
- T/C [8]: 98 % of control
- T/C [9]: 93 % of control

SMILES: O=[N+]([O-])c1cccc(C[n+]2ccccc2C2OCCO2)c1
- T/C (dose: 35.0 mg/kg/injection, schedule: Q01DX009 (ip), vehicle: saline): 95 % of control

SMILES: CCN(CCNS(C)(=O)=O)c1ccc(N)c(C)c1
- T/C (dose: 3.12 mg/kg/injection, schedule: Q01DX009 (ip), vehicle: saline): 101 % of control
- T/C (dose: 6.25 mg/kg/injection, schedule: Q01DX009 (ip), vehicle: saline): 91 % of control
- T/C (dose: 12.5 mg/kg/injection, schedule: Q01DX009 (ip), vehicle: saline): 99 % of control and 92 % of control

SMILES: COc1ccc(/C=C/C(=O)c2cc(O)cc(OC)c2)cc1
- T/C [1]: 102 % of control
- T/C [2]: 100 % of control
- T/C [3]: 94 % of control
- T/C [4]: 108 % of control
- T/C [5]: 94 % of control
- T/C [6]: 95 % of control

SMILES: CCCC(O)C[N+](=O)[O-] (centres undefined)
- T/C [15]: 103 % of control
- T/C [16]: 97 % of control
- T/C [17]: 101 % of control

SMILES: C#CCC1(OC(N)=O)CCCCC1
- T/C (dose: 25.0 mg/kg/injection, schedule: Q01DX009 (ip), vehicle: Klucel (hydroxypropylcellulose) (HPC)): 96 % of control
- T/C [18]: 102 % of control
- T/C [19]: 96 % of control
- T/C [7]: 110 % of control
- T/C [20]: 110 % of control
- T/C [8]: 100 % of control
- T/C [21]: 87 % of control
- T/C [9]: 107 % of control
- T/C [13]: 94 % of control

SMILES: O=C(O)c1cc(-c2ccccc2Cl)nc2ccccc12
- T/C [22]: 96 % of control
- T/C [23]: 94 % of control
- T/C [24]: 97 % of control

SMILES: O=c1[nH]c(CC(O)C(Cl)(Cl)Cl)nc2ccccc12 (centres undefined)
- T/C [19]: 100 % of control
- T/C [20]: 100 % of control
- T/C [21]: 103 % of control

SMILES: CCN(CC)CCOc1cccc(O)c1
- T/C [18]: 94 % of control
- T/C [7]: 97 % of control
- T/C (dose: 100.0 mg/kg/injection, schedule: Q01DX001 (ip), vehicle: Klucel (hydroxypropylcellulose) (HPC)): 93 % of control
- T/C [8]: 100 % of control and 107 % of control
- T/C (dose: 200.0 mg/kg/injection, schedule: Q01DX001 (ip), vehicle: Klucel (hydroxypropylcellulose) (HPC)): 91 % of control

SMILES: COc1ccc(CN2CCCN(Cc3ccc(OC)cc3OC)C2c2ccccc2OC)c(OC)c1
- T/C (dose: 50.0 mg/kg/injection, schedule: Q01DX001 (ip), vehicle: carboxymethylcellulose (CMC)): 101 % of control
- T/C [10]: 93 % of control
- T/C [11]: 93 % of control
- T/C [12]: 101 % of control

SMILES: c1ccc2cc(Nc3ccc4ccccc4c3)ccc2c1
- T/C [1]: 106 % of control
- T/C [3]: 108 % of control
- T/C [5]: 101 % of control

SMILES: COc1cccc(OC)c1OCCCN1CCOCC1
- T/C (dose: 25.0 mg/kg/injection, schedule: Q04DX003 (ip), vehicle: saline with Tween-80): 99 % of control
- T/C (dose: 50.0 mg/kg/injection, schedule: Q04DX003 (ip), vehicle: saline with Tween-80): 100 % of control
- T/C [2]: 94 % of control

SMILES: C[N+]1(CC2CO2)CCCCCC1 (centres undefined)
- T/C (dose: 75.0 mg/kg/injection, schedule: Q01DX001 (ip), vehicle: saline): 95 % of control

SMILES: c1ccc2c(c1)OCCOCCOc1ccccc1OCCOCCO2
- T/C [25]: 98 % of control and 89 % of control
- T/C [15]: 94 % of control and 92 % of control
- T/C [26]: 101 % of control and 92 % of control
- T/C [16]: 93 % of control and 92 % of control
- T/C (dose: 400.0 mg/kg/injection, schedule: Q01DX009 (ip), vehicle: saline): 94 % of control and 91 % of control
- T/C [17]: 89 % of control and 90 % of control

SMILES: O=C(Nc1ccccc1[N+](=O)[O-])C(=O)Nc1ccccc1[N+](=O)[O-]
- T/C (dose: 50.0 mg/kg/injection, schedule: Q01DX009 (ip), vehicle: saline with Tween-80): 91 % of control
- T/C [1]: 86 % of control
- T/C [2]: 95 % of control
- T/C [3]: 94 % of control
- T/C [4]: 93 % of control

SMILES: O=C1NC(CCO)C(=O)NC1CCO (centres undefined)
- T/C (dose: 50.0 mg/kg/injection, schedule: Q01DX009 (ip), vehicle: saline): 97 % of control
- T/C [22]: 100 % of control
- T/C [25]: 112 % of control
- T/C [23]: 97 % of control
- T/C [26]: 104 % of control
- T/C [24]: 100 % of control

SMILES: O=S(=O)(c1ccccc1)C1CCCCC1Cl (centres undefined)
- T/C [10]: 95 % of control
- T/C [11]: 98 % of control
- T/C [12]: 101 % of control

SMILES: N#Cc1cn(-c2ccc(Cl)cc2)c2ncccc12
- T/C (dose: 25.0 mg/kg/injection, schedule: Q01DX001 (ip), vehicle: saline): 100 % of control
- T/C (dose: 50.0 mg/kg/injection, schedule: Q01DX001 (ip), vehicle: saline): 100 % of control
- T/C [14]: 88 % of control
- T/C [22]: 100 % of control
- T/C [23]: 87 % of control
- T/C [24]: 102 % of control
